Values of other authors as cited in US20210176995A1, “Disinfection Composition Comprising Tartaric Acid and Lactic Acid” (Wiping Systems ApS, priority 2016, published 2021).

Tested on: Aspergillus b., Bacillus S., Cereus and Clostridium spores
Conditions: surfaces

Q: For CCCCCCCCCC[N+](C)(C)CCCCCCCCCC.[Cl-] [DDAC], which “killing of Aspergillus b., Bacillus S., Cereus and Clostridium spores” value (“killing” for short) is on record?
A: can't be killed

Q: For PHMB, which “killing” value is on record?
A: can't be killed

Q: For CCO [alcohol, ethanol], which “killing” value is on record?
A: can't be killed
